Patent US20020103228A1, “Composition and method for use of pyridinium derivatives in cosmetic and therapeutic applications” (TORRENT PHARMACEUTICALS LTD., priority 1999, published 2002)

Columns and labels:
[1] = Free radical scavenging activity on ABTS radical cation; assay type: biochemical
Protocol: This method measures the relative ability of free radical scavenging substances to scavenge the ABTS^.+ i.e. 2,2-Azino-bis-(3-ethyl benzo thiazoline-6-sulfonate) radical cation as compared to a standard amount of standard or free radical scavengers antioxidants. Incubation of ABTS with Peroxidase (metmyoglobin) and hydrogen peroxide results in the production of radical cation ABTS^.+. This species is blue-green in colour and can be detected at 730 nm. Antioxidants or free radical scavengers in the added sample that causes suppression of the color to a degree that is proportional to their concentration.
Preparation of Buffer Solutions
A. Phosphate Citrate Buffer (pH 5.0). 48.5 ml of 0.1M citric acid with sufficient 0.2M disodium hydrogen phosphate to produce 100 ml.
B. Phosphate Buffer Saline (PBS): Dissolve 40.0 g of NaCl, 1.0 g of KCl, 1.0 g of KH2PO4 and 3.05 g of Na2HPO4 in 1 liter milli-Q water. Dilute 200 ml of above solution to 1 liter with milli-Q water (pH 7.4-7.6).
C. 3 μM stock solution of Peroxidase was prepared in phosphate buffer saline pH 7.4(PBS).
D. 1.08 mM stock solution of Hydrogen peroxide was prepared in phosphate buffer saline pH 7.4 (PBS).
Preparation of ABTS Stock Solution
1 tablet (10 mg) was dissolved in phosphate citrate buffer (pH 5.0).
Preparation of ABTS Working Solution
5.0 ml of ABTS stock solution was diluted with PBS to 20 ml.
Preparation of Horse Radish Peroxidase Stock Solution
320 μg of the enzyme was dissolved in 2.5 ml of PBS.
Preparation of Hydrogen Peroxide (1.08 mM) Solution
12 μl of Hydrogen Peroxide (30% w/v) was diluted to 100 ml with PBS. […]
Preparation of ABTS Radical Stock Solution
To 18 ml of ABTS stock solution, 100 μl of Horseradish Peroxidase stock solution was added.
As soon as 1.5 ml of hydrogen peroxide solution was added to the above solution, blue-green colour of the ABTS radicals appeared. This solution was incubated at 30° C. for 30 min.
Preparation of Control Solution
980 μl of ABTS radical stock solution was added to an eppendorf tube. To it was added 100 μl of various PBS solution.
Preparation of test Solution
980 μl of ABTS radical stock solutions were added to different eppendorf tubes. To it were added 100 μl of various concentrations of drug solution.
Measurement of Absorbance (O.D)
The absorbance of control and test samples was recorded immediately at 730 nm taking PBS as blank.
Calculation: The percent antioxidant activity was calculated according to the formula. % Antioxidant activity=[O.D of test sample/O.D of control*100]−100.

AGE-BSA = target: T1, AGE-BSA (Bos taurus, UniProt P02769); test: In-vitro AGE breaking activity by ELISA; assay type: biochemical, Bovine; settings: 37° C., 24 hours
T1 construct: Bovine serum albumin (fraction V) (BSA); from tissue; host or cells: bovine serum (fraction V); glycated in house with 1.6 M glucose at 37 °C for 16 weeks
Protocol: AGE breaking activity has been confirmed by the screening procedure as mentioned below:
Methods of experiment: Elisa (Enzyme Linked Immunosorbent Assay)
160 mg/ml of protein, bovine serum albumin, BSA and 1.6M glucose sugar were dissolved in phosphate buffered saline, PBS. Sodium azide was added at 0.02% concentration as a preservative. The solution was filtered asceptically through a […] filter and kept for aging at 37° C. for 16 weeks. After 16 weeks the solution was dialyzed against PBS, aliquoted and stored at −20° C.
To determine the AGE breaking activity, 10 μg/ml of the 16 weeks AGE-BSA was incubated with different concentrations of the test compounds at 37° C. for 24 hours and AGE breaking activity of the test compounds by ELISA was determined.
ELISA was performed as follows
1. Different concentrations of 16 weeks AGE-BSA were coated on a microtiter plate as standard. Each concentration is coated in triplicates.
2. The test samples were coated on microtiter plate at a concentration of 5 ng to 20 ng per well in triplicates
3. The plate was incubated at 37° C. for one hour.
4. After incubation the plate was washed with PBST (PBS with 0.05% Tween 20).
5. Blocking with 5% skimmed milk in PBS at 37° C. for one hour was done.
6. The plate was washed with PBST.
7. Primary antibody against AGE-BSA was added and the plate is incubated at 37° C. for one hour.
8. The plate was washed with PBST
9. Secondary antibody anti rabbit HRPO (Horse-Radish Per Oxidase) conjugate was added and the plate is incubated at 37° C. for one hour.
10. The plate was washed with PBST.
11. Colour development with OPD (orthophenylenediamine dihydrochloride) and hydrogen peroxide was done.
12. OD (optical density) at (450 nm reading-620 nm reading) was measured after incubation at 37° C. for 15 minutes with Microplate ELISA Reader
The breaker activity of the compounds were determined by the following formula: [formula]
OD450-620Control=Absorbance of 20 ng AGE-BSA after incubation at 37° C. for 24 hours without test compound
OD450-620Test=Absorbance of 20 ng AGE-BSA after incubation at 37° C. for 24 hours with required concentration of test compound
Using specific examples, the % AGE breaking activity was calculated and recorded in Table 2.

T1 sequence (P02769 25-607): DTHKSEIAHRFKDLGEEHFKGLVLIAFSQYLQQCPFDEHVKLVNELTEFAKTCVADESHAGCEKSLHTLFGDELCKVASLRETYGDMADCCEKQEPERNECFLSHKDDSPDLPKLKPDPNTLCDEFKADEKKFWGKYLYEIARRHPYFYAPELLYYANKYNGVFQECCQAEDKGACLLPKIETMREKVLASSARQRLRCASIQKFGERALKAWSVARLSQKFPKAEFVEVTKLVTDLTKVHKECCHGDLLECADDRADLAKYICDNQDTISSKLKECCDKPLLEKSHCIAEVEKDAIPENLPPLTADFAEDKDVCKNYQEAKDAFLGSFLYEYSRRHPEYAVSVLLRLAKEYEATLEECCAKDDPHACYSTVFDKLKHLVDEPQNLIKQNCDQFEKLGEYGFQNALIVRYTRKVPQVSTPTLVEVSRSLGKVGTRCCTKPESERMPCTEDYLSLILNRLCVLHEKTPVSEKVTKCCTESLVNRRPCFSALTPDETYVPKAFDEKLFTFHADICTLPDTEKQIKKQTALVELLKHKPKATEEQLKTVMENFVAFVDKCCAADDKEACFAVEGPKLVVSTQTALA

## CCOC(=O)C[n+]1cccc(C(=O)NNc2ccccn2)c1.[Br-] [Compound 4, 1-(2-ethoxy-2-oxoethyl)-3-(2-(2-pyridyl)hydrazinocarbonyl)pyridinium bromide]
[1]; 11.5 μM
  Relative Free Radical Scavenging Activity (%) on ABTS: 58.2%
[1]; 23.0 μM
  Relative Free Radical Scavenging Activity (%) on ABTS: 64.3%
[1]; 46.0 μM
  Relative Free Radical Scavenging Activity (%) on ABTS: 69.3%
[1]; 92.5 μM
  Relative Free Radical Scavenging Activity (%) on ABTS: 98.6%
[1]; 925 μM
  Relative Free Radical Scavenging Activity (%) on ABTS: 100%
AGE-BSA; 10 mM test compound
  % Breakage: 30%

## COCCOC(=O)c1ccc[n+](CC(=O)c2ccc(Cl)cc2Cl)c1.[Br-] [Compound 22, 1-(2-(2′,4′-dichlorophenyl)-2-oxoethyl)-3-(2(methoxy)ethyloxycarbonyl)pyridinium bromide]
[1]; 11.5 μM
  Relative Free Radical Scavenging Activity (%) on ABTS: 27.9%
[1]; 23.0 μM
  Relative Free Radical Scavenging Activity (%) on ABTS: 50.9%
[1]; 46.0 μM
  Relative Free Radical Scavenging Activity (%) on ABTS: 69.3%
[1]; 92.5 μM
  Relative Free Radical Scavenging Activity (%) on ABTS: 79.7%
[1]; 925 μM
  Relative Free Radical Scavenging Activity (%) on ABTS: 100%
AGE-BSA; 10 mM test compound
  % Breakage: 13%
AGE-BSA; 25 mM test compound
  % Breakage: 41%

## O=C(NNC(=O)c1ccc[n+](CC(=O)c2ccco2)c1)c1ccc[n+](CC(=O)c2ccco2)c1.[Br-].[Br-] [Compound 32, N,N′-bis[3-carbonyl-1-(2-furan-2′-yl-2-oxoethyl)pyridinium]hydrazine dibromide]
AGE-BSA; 10 mM test compound
  % Breakage: 14%

## COCCNC(=O)c1ccc[n+](CC(=O)NC2CC2)c1.[Cl-] [Compound 40, 1-(2-cyclopropylamino-2-oxoethyl)-3-(2-methoxyethylaminocarbonyl)-pyridinium chloride]
AGE-BSA; 10 mM test compound
  % Breakage: 12.38%

## O=C(NNC(=O)c1cccnc1Cl)c1ccc[n+](CC(=O)c2cccs2)c1.[Cl-] [Compound 42, 1-(2-thien-2′yl-2-oxoethyl)-3-(2-(2-chloro-3-pyridoyl)hydrazinocarbonyl)-pyridinium chloride]
AGE-BSA; 10 mM test compound
  % Breakage: 12.51%

## CC(C)NC(=O)C[n+]1cccc(C(=O)NNS(C)(=O)=O)c1.[Cl-] [Compound 43, 1-(2-isopropylamino-2-oxoethyl)-3-(2-methylsulfonylhydrazinocarbonyl)-pyridinium chloride]
AGE-BSA; 10 mM test compound
  % Breakage: 10.85%

## COCCNC(=O)c1cc(Br)c[n+](CC(=O)c2cccs2)c1.[Cl-] [Compound 47, 1-(2-thien-2′-yl-2-oxoethyl)-3-((2-methoxyethyl)aminocarbonyl)-5-bromo pyridinium chloride]
AGE-BSA; 10 mM test compound
  % Breakage: 32.38%

## Cc1ccc(C(=O)NNC(=O)c2ccc[n+](CC(=O)c3cccs3)c2)c[n+]1CC(=O)c1cccs1.[Cl-].[Cl-] [Compound 49, 1-[1-(2-thien-2′yl-2-oxoethyl)-6-methyl-3-carbonylpyridinium]-2-[1-(2-Thien-2′-yl-2-oxoethyl)-3-carbonylpyridinium]hydrazine dichloride]
AGE-BSA; 2.5 mM test compound
  % Breakage: 85.67%

## CCOC(=O)C1CCCN1C(=O)C[n+]1cccc(C(=O)NNS(C)(=O)=O)c1.[Cl-] (stereo not drawn) [Compound 52, 1-(2-(2-ethoxycarbonylpyrrolidin-1-yl)-2-oxoethyl)-3-(methanesulfonyl hydrazinocarbonyl)pyridinium chloride]
AGE-BSA; 10 mM test compound
  % Breakage: 25.34%

## CS(=O)(=O)NNC(=O)c1cc(Br)c[n+](CC(=O)c2cccs2)c1.[Br-] [Compound 53, 1-(2-thien-2′-yl-2-oxoethyl)-3-(methanesulfonyl hydrazinocarbonyl)-5-bromo pyridinium bromide]
AGE-BSA; 2.5 mM test compound
  % Breakage: 29.36%

## Cc1ccc(C(=O)NNS(C)(=O)=O)c[n+]1CC(=O)c1cccs1.[Br-] [Compound 57, 1-(2-thien-2′-yl-2-oxoethyl)-3-(methanesulfonyl hydrazinocarbonyl)-6-methyl pyridinium bromide]
AGE-BSA; 1 mM test compound
  % Breakage: 77.69%

## Cc1ccc(C(=O)C[n+]2cccc(C(=O)NNC(=O)c3ccc[n+](CC(=O)c4ccc(C)s4)c3)c2)s1.[Cl-].[Cl-] [Compound 58, N,N′-bis[3-carbonyl-1-(2-(5-methylthien-2-yl)-2-oxoethyl)pyridinium]hydrazine dichloride]
AGE-BSA; 10 mM test compound
  % Breakage: 81.95%

## CCOC(=O)C1CCCN1C(=O)C[n+]1cccc(C(=O)NNC(=O)c2ccc[n+](CC(=O)N3CCCC3C(=O)OCC)c2)c1.[Cl-].[Cl-] (stereo not drawn) [Compound 59, N,N′-bis[3-carbonyl-1-(2-(2-ethoxycarbonylpyrrolidin-1-yl)-2-oxoethyl)pyridinium]hydrazine dichloride]
AGE-BSA; 10 mM test compound
  % Breakage: 20.31%

## CCOC(=O)C1CSCN1C(=O)C[n+]1cccc(C(=O)NNS(C)(=O)=O)c1.[Cl-] (stereo not drawn) [Compound 61, 1-(2-(4-carboethoxy-thiazolidin-3-yl)-2-oxoethyl)-3-(methanesulfonyl hydrazinocarbonyl)pyridinium chloride]
AGE-BSA; 10 mM test compound
  % Breakage: 25.06%

## O=C(NNC(=O)c1ccc[n+](CC(=O)c2ccc(Cl)s2)c1)c1ccc[n+](CC(=O)c2ccc(Cl)s2)c1.[Cl-].[Cl-] [Compound 62, N,N′-bis[3-carbonyl-1-(2-(5-chlorothien-2-yl)-2-oxoethyl)pyridinium]hydrazine dichloride]
AGE-BSA; 10 mM test compound
  % Breakage: 78.41%

## O=C(C[n+]1ccc(C(=O)NCCOC(=O)c2ccccc2)cc1)Nc1ccccc1.[Cl-] [Compound 66, 1-(2-phenylamino-2-oxoethyl)-4-[2-(benzoyloxy)ethylaminocarbonyl]pyridinium chloride]
AGE-BSA; 10 mM test compound
  % Breakage: 19.07%

## NC(=O)c1ccc[n+](CC(=O)c2cccs2)c1.[Br-] [Compound 85, 3-Carbonylamino-1-(2-thien-2′-yl-2-oxoethyl)-pyridinium bromide]
AGE-BSA; 10 mM test compound
  % Breakage: 3%

## CCOC(=O)C[n+]1cccc(C(=O)NCCO)c1.[Br-] [Compound 87, 1-(2-Ethoxy-2-oxoethyl)-3-((2-hydroxyethyl)aminocarbonyl)pyridinium bromide]
AGE-BSA; 10 mM test compound
  % Breakage: 43%

## CCCCNC(=O)c1ccc[n+](CC(=O)Nc2ccccc2)c1.[Cl-] [Compound 94, 1-(2-Phenylamino-2-oxoethyl)-3-(n-butylaminocarbonyl)pyridinium chloride]
AGE-BSA; 10 mM test compound
  % Breakage: 27%

## O=C(C[n+]1cccc(C(=O)NCCO)c1)Nc1ccccc1.[Cl-] [Compound 95, 1-(2-Phenylamino-2-oxoethyl)-3-((2-hydroxyethyl)aminocarbonyl)-pyridinium chloride]
AGE-BSA; 20 mM test compound
  % Breakage: 48%

## O=C(C[n+]1ccsc1)c1ccccc1.[Br-] [PTB, reference compound]
AGE-BSA; 10 mM test compound
  % Breakage: 27%
AGE-BSA; 20 mM test compound
  % Breakage: 47%
